What follows are molecules tested against Dehydrogenase/reductase SDR family member 6 (Homo sapiens) (UniProt Q9BUT1) (assay: DHRS6 binders by thermal stabilisation, biophysical, DSF, SYPRO orange, purified human protein (AID 510)). Details: at 100 µM, protein 2 µM, buffer 10 mM HEPES, pH 7.5, NaCl 150 mM, stronger effect = higher value.
Chain of Dehydrogenase/reductase SDR family member 6 (Homo sapiens) (Q9BUT1 whole entry, looked up): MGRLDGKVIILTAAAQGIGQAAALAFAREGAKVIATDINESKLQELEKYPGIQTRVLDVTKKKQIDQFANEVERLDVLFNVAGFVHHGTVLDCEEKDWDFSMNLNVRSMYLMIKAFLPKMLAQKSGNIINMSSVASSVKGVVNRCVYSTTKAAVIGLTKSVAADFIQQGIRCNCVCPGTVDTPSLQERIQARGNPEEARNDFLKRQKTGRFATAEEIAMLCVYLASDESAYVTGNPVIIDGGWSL
`NC(=O)c1ccc[n+](C2OC(COP(=O)(O)OP(=O)(O)OCC3OC(n4cnc5c(N)ncnc54)C(O)C3O)C(O)C2O)c1` (stereo not given) was tested, and the Tm shift was 2.4 Celsius.
`O=C(C1CCN(S(=O)(=O)c2cccnc2)CC1)N1CCN(C(c2ccccc2)c2ccc(Cl)cc2)CC1` (stereo not given) was tested, and the Tm shift was 2.2 Celsius.
`O=c1oc2cc(O)ccc2c2oc3cc(O)ccc3c12` gave a Tm shift of 2.2 Celsius.
`O=C1C2(Cl)C3(Cl)C4(Cl)C(Cl)(Cl)C5(Cl)C3(Cl)C1(Cl)C5(Cl)C24Cl` (stereo not given) was tested, and the Tm shift was 4.7 Celsius.
For `C=CC1=C(C)/C(=C/c2[nH]c(Cc3[nH]c(/C=C4\NC(=O)C(C)=C4C=C)c(C)c3CCC(=O)O)c(CCC(=O)O)c2C)NC1=O`, the Tm shift was 8.1 Celsius.

— PubChem BioAssay AID510
